Test results from PMC4669708 (Cell Death & Disease, 2015).
One block for each molecule: values may come before it.

Tests used:
[1] = system: FADD-deficient Jurkat cells; experiment: TNF-α-induced necroptosis, cell viability (CellTiter Glo); format: cell-based, human; conditions: for prevention of necroptotic cell death: dose range, Figure 2a, b; for EC50: CellTiter Glo, read-out: EC50 for inhibiting necroptosis
Method: (§1) Cells were seeded in 12-, 24- or 96-well plates at proper cell density. For necroptosis or apoptosis assays, cells were incubated with the indicated compound combinations at concentrations stated for 14–24 h. Smac mimetic and z-VAD-FMK were added 30–60 min before treatment with TNF-α, FasL or TRAIL. Cell viability was determined using CellTiter Glo Luminescent Cell Viability Assay (Promega, Fitchburg, WI, USA) according to the manufacturer's instructions. Luminescence was recorded with a SpectraMax M5Multimode plate reader (Molecular Devices, Sunnyvale, CA, USA). For flow cytometry-based determination of viability, cells were harvested, collected by centrifugation, washed once and resuspended in staining buffer (1 × PBS, 10% FBS). Cells were incubated with 0.5 μg/ml PI for 10 min at room temperature (RT) in the dark. Flow cytometric analyses were performed on an LSR Fortessa (BD Biosciences) and analyzed with FlowJo software version 7.6.3 (Tree Star Inc, Ashland, OR, USA). Cell size was evaluated by forward scatter. PI-negative normal-sized cells were considered living and data were normalized to values of untreated controls.
The compounds were transferred into drug plates by acoustic droplet ejection using an Echo 520 liquid handler (LABCYTE, Sunnyvale, CA, USA). Necroptosis was induced in FADD-deficient Jurkat cells by addition of 10 ng/ml TNF-α immediately before seeding onto drug plates at a density of 1x10^4 cells/well. After 16 h incubation, cell viability was determined using CellTiter Glo Luminescent Cell Viability Assay according to manufacturer's instructions. Data analysis was performed by calculating a percentage of control to normalize for variability across different plates. The signal for the negative control DMSO wells was set to 0%, whereas the wells containing the positive control Nec-1 were put to 100% for each plate individually.

[2] = system: HT-29 cells; experiment: TNF-α/Smac mimetic/z-VAD-FMK (TSZ)-induced necroptosis, cell viability; format: cell-based, human; conditions: for rescue of TSZ-induced necroptotic cell death: compounds 1 μM, 20 ng/ml TNF-α, 500 nM Smac mimetic, 20 μM z-VAD overnight
Method: as §1

[3] = system: HT-29 MLKL S358D cells; experiment: Cell death driven by doxycycline-induced MLKL S358D expression; format: cell-based, human; conditions: 2 μg/ml doxycycline overnight; 10 μM NSA, 0.5 μM ponatinib
Method: as §1, with “controls. For detection of apoptosis, cells were resuspended in Annexin V Binding Buffer (BioLegend, San Diego, CA, USA) and stained with 0.5 μg/ml PI and Alexa Fluor 647 Annexin V (BioLegend) according to manufacturer's instructions.” for “controls.”

[4] = target: RIPK3 (Homo sapiens, UniProt Q9Y572); experiment: Recombinant kinase assay; format: biochemical; set-up: purchased Signalchem R09-10G
Chain of RIPK3 (Q9Y572 whole entry): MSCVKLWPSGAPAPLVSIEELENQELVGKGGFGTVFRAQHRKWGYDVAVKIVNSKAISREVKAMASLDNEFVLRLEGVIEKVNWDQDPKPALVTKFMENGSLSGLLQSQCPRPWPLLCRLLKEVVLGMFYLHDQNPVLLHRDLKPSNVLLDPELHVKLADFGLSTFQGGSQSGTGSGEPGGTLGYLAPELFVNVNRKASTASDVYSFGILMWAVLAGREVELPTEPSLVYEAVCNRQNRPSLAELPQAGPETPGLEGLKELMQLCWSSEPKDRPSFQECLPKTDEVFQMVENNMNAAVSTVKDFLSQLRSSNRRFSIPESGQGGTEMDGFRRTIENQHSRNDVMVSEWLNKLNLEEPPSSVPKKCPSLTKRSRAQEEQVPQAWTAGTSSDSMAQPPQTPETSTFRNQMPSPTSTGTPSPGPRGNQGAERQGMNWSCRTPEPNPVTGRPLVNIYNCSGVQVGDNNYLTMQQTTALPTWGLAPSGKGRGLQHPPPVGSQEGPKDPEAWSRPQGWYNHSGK
Method: (§2) Recombinant RIPK1 or RIPK3 protein was incubated with the substrate MBP in kinase assay buffer (40 mM Tris-HCl pH 7.5, 10 mM MgCl2 and 1 mM DTT) in presence of 50 μM ATP, 5 μCi [γ-32 P]ATP and the indicated inhibitors in a total volume of 20 μl. […] The terminated reactions were spotted onto a SAM2 Biotin Capture membrane (Promega) and further processed according to the manufacturer's instructions. […] Data were normalized to a DMSO-treated control sample. For autoradiography, the reactions were stopped by addition of 5 μl 4x Laemmli buffer and incubated for 5 min at 95 °C.

[5] = target: T1, recombinant RIPK1 (Homo sapiens, UniProt Q13546); experiment: Recombinant kinase assay; format: biochemical; conditions: 50 μM ATP; Supplementary Figure 4b
T1 construct: purchased Signalchem R07-10G
T1 sequence (Q13546 1-327 limits assumed): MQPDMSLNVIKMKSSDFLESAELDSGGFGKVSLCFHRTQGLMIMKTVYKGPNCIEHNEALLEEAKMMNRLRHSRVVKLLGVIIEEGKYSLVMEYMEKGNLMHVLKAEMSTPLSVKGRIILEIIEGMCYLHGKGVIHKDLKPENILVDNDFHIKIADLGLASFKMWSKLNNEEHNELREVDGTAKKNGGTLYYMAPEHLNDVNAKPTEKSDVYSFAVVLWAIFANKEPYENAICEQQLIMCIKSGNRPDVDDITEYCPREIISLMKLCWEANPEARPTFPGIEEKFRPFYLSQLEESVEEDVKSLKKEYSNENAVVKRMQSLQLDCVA
Method: as §2

[6] = system: Jurkat E6.1 cells; experiment: FasL-induced apoptosis, cell viability; format: cell-based; conditions: 100 ng/ml human FasL, 24 h; 0.5 μM ponatinib, 5 μM pazopanib
Method: as §1, with “controls. For detection of apoptosis, cells were resuspended in Annexin V Binding Buffer (BioLegend, San Diego, CA, USA) and stained with 0.5 μg/ml PI and Alexa Fluor 647 Annexin V (BioLegend) according to manufacturer's instructions.” for “controls.”

[7] = system: HT-29 cells; experiment: TRAIL- or FasL-induced necroptosis with Smac mimetic and z-VAD; format: cell-based, human; conditions: 0.5 μM ponatinib, 5 μM pazopanib
Method: as §1, with “controls. For detection of apoptosis, cells were resuspended in Annexin V Binding Buffer (BioLegend, San Diego, CA, USA) and stained with 0.5 μg/ml PI and Alexa Fluor 647 Annexin V (BioLegend) according to manufacturer's instructions.” for “controls.”

[8] = system: 3T3-SA cells; experiment: TNF-α/z-VAD (TZ)-induced necroptosis; format: cell-based, murine; conditions: Supplementary Figures 3a, b
Method: as §1, with “controls. For detection of apoptosis, cells were resuspended in Annexin V Binding Buffer (BioLegend, San Diego, CA, USA) and stained with 0.5 μg/ml PI and Alexa Fluor 647 Annexin V (BioLegend) according to manufacturer's instructions.” for “controls.”

Molecule: COc1cc(O)c2c(c1)/C=C/C[C@H](O)[C@H](O)C(=O)/C=C\C[C@H](C)OC2=O [TAK1 inhibitor]
- protection to necroptosis ([1]; Supplementary Figures 6b, c): not able to confer protection to necroptosis

Molecule: Cc1cn(-c2cc(NC(=O)c3ccc(C)c(Nc4nccc(-c5cccnc5)n4)c3)cc(C(F)(F)F)c2)cn1 [nilotinib]
- prevention of necroptotic cell death ([1]; 10 ng/ml TNF-α overnight): none of the other drugs prevented necroptotic cell death
- rescue of TSZ-induced necroptotic cell death [2]: neither of the other four BCR-ABL inhibitors nor vandetanib did

Molecule: COc1nccnc1NS(=O)(=O)c1ccc(NC(=O)/C=C/c2ccc([N+](=O)[O-])s2)cc1 [NSA, necrosulfonamide]
- block of cell death driven by MLKL S358D expression [3]: could be blocked

Molecule: COc1cc2c(Nc3ccc(Br)cc3F)ncnc2cc1OCC1CCN(C)CC1 [vandetanib]
- prevention of necroptotic cell death ([1]; 10 ng/ml TNF-α overnight): did not confer protection
- rescue of TSZ-induced necroptotic cell death [2]: neither of the other four BCR-ABL inhibitors nor vandetanib did

- RIPK3 autophosphorylation ([4]; autoradiography, Supplementary Figure 4c): showed no effect
Molecule: CN1C(=O)NC(Cc2c[nH]c3c(Cl)cccc23)C1=O (stereo not shown) [Nec-1s, 7-Cl-O-Nec-1]
- EC50 ([1]; 10 ng/ml TNF-α overnight): 238 nM

- RIPK1 kinase activity (MBP phosphorylation) [5]: inhibiting RIPK1 kinase activity
Molecule: 5-[[4-[(2,3-dimethyl-2H-indazol-6-yl)methylamino]-2-pyrimidinyl]amino]-2-methyl-b enzenesulfonamide [pazopanib]
- block of cell death driven by MLKL S358D expression [3]: did not block MLKL S358D-driven necroptosis
- inhibition of apoptotic cell death triggered by FasL [6]: none of the drugs inhibited apoptotic cell death
- block of TRAIL-induced cell death ([7]; 200 ng/ml TRAIL + 500 nM Smac mimetic + 20 μM z-VAD): similarly blocked
- block of FasL-induced necroptotic cell death ([7]; 200 ng/ml human FasL + 500 nM Smac mimetic + 20 μM z-VAD): similarly blocked
- EC50 ([1]; 10 ng/ml TNF-α overnight): 254 nM
- rescue of cell viability in drug screen ([1]; 0.5 and 1.5 μM, 10 ng/ml TNF-α overnight): robustly rescued cell viability at both concentrations
- block of necroptotic cell death [8]: capable of blocking necroptotic cell death with comparable potency
- EC50 ([2]; TSZ treatment, read-out: EC50 (necroptosis block)): 873 nM
- rescue of TSZ-induced necroptotic cell death [2]: rescued

- RIPK3 kinase activity (MBP phosphorylation) ([4]; 50 μM ATP, Figure 4e inhibitors at 10 μM): interfered with RIPK3 activity
Molecule: Cc1nc(Nc2ncc(C(=O)Nc3c(C)cccc3Cl)s2)cc(N2CCN(CCO)CC2)n1 [dasatinib]
- prevention of necroptotic cell death ([1]; 10 ng/ml TNF-α overnight): showed a modest effect but only at drug concentrations high enough to induce toxicity
- rescue of TSZ-induced necroptotic cell death [2]: neither of the other four BCR-ABL inhibitors nor vandetanib did

Molecule: COc1cc(Nc2c(C#N)cnc3cc(OCCCN4CCN(C)CC4)c(OC)cc23)c(Cl)cc1Cl [bosutinib]
- prevention of necroptotic cell death ([1]; 10 ng/ml TNF-α overnight): none of the other drugs prevented necroptotic cell death
- rescue of TSZ-induced necroptotic cell death [2]: neither of the other four BCR-ABL inhibitors nor vandetanib did

Molecule: Cc1ccc(NC(=O)c2ccc(CN3CCN(C)CC3)cc2)cc1Nc1nccc(-c2cccnc2)n1 [imatinib]
- prevention of necroptotic cell death ([1]; 10 ng/ml TNF-α overnight): none of the other drugs prevented necroptotic cell death
- rescue of TSZ-induced necroptotic cell death [2]: neither of the other four BCR-ABL inhibitors nor vandetanib did
